Results taken from patent US20260325608A1, “PEPTIDES FOR USE IN THE TREATMENT OF SARCOMA” (PHARIS BIOTEC GMBH, priority 2023, published 2026).
Values belong to the compound of their own block, whether it stands above or below them. No end group written: not given here.

Tests used:
[1] = Isoelectric point of the peptide; assay type: physicochemical
childhood sarcomas = details: in vivo; cited from earlier work
osteosarcoma = test: Compassionate use treatment of an osteosarcoma patient with intranasal peptide (Example 5); assay type: in vivo; details: three times a day
Protocol: A patient suffering from osteosarcoma was treated under the terms of compassionate use.
The peptide IVRYTKKVPQVS (SEQ ID NO: 21) was provided in a citrate/bicarbonate buffer (Pharmacopoeia Europaea, Ph. Eur.), in a concentration of 1 mg/mL (1 mg of the peptide in 1 mL of the buffer). This composition was administered intranasally as a nasal spray. The nasal spray was administered three times a day (morning, noon, evening), two strokes into each nasal cavity, for six weeks.
The course of the disease/clinical picture of the patient was monitored via an immune panel measurement, once a week. In blood count measurements, the numbers of erythrocytes, thrombocytes, etc. were determined.

- isoelectric point (pI) [1]: 10.3
Compound: LVRYTKKVPQVSTPTL [ALB408-423, LVRYTKKVPQVSTPTL]

Compound: O=P1(N(CCCl)CCCl)NCCCO1 (stereo not shown) [cyclophosphamide]
- anti-tumor efficacy (childhood sarcomas): good anti-tumor efficacy

Compound: IVRYTKKVPQVS [SEQ ID NO: 21]
- side effects (osteosarcoma; 1 mg/mL nasal spray, six weeks): no side effects were observed
- regression of the tumor (MRT measurements) (osteosarcoma; 1 mg/mL nasal spray, six weeks, especially in the area of the spine and the vertebral holes): regression of the tumor
- blood picture (osteosarcoma; after four weeks of treatment, 1 mg/mL nasal spray in citrate/bicarbonate buffer, two strokes into each nasal cavity): normalized
- pain (osteosarcoma; after six weeks of treatment, 1 mg/mL nasal spray, severe pain before start): pain-free
- mobility of the patient (osteosarcoma; during six weeks of treatment, 1 mg/mL nasal spray, patient was unable to move before start): restored
